Among the data in patent US20250228835A1, “PYRIDINYLOXYPYRIDINES AND RELATED COMPOUNDS AND THEIR USE IN TREATING MEDICAL CONDITIONS” (Rectify Pharmaceuticals, Inc., priority 2024, published 2025) are EC50 values, retold here.

In this assay the target is T1, ABCC6 WT (Homo sapiens, UniProt O95255).
T1 construct: expressed in transfected cells; host or cells: HEK-293 (transient, Lipofectamine 2000)
T1 sequence (O95255 whole entry): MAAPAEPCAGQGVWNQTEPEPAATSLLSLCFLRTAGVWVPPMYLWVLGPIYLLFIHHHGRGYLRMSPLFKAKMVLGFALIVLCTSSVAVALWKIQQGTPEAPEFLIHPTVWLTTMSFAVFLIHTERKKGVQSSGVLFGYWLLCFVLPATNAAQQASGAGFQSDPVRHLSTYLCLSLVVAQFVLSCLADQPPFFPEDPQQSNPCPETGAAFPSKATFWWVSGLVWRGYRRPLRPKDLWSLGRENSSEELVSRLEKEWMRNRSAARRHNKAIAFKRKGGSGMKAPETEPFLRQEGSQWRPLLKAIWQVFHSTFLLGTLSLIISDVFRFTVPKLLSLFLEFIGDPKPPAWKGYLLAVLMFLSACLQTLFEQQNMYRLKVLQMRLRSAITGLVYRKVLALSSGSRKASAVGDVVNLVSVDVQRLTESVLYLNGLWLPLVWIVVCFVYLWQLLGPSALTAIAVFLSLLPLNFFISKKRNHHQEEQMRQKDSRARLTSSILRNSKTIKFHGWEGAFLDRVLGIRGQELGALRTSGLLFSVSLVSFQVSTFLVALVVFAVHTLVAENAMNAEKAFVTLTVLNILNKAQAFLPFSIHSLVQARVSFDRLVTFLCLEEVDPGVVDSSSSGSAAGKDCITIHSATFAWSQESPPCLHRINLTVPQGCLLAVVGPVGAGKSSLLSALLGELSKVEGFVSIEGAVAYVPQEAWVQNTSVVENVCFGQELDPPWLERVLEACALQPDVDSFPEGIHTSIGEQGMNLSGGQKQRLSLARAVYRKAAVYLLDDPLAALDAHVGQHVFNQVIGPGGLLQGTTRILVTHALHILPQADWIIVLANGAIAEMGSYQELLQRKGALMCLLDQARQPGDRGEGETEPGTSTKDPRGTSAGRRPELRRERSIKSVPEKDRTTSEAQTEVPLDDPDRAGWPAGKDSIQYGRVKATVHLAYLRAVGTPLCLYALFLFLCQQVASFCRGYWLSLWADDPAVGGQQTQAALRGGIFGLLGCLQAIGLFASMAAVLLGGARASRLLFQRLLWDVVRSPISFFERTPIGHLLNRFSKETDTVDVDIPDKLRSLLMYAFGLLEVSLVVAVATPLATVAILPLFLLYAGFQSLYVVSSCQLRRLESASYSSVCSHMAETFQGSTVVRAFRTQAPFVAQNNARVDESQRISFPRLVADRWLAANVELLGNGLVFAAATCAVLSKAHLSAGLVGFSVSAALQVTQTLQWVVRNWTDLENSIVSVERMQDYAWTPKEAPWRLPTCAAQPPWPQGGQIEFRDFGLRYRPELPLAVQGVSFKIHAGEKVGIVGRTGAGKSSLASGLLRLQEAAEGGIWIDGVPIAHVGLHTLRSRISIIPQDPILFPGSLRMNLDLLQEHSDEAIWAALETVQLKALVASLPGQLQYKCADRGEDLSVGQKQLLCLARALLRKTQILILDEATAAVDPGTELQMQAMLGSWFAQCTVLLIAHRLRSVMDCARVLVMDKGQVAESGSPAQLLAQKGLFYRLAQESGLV
The experiment in a line: ABCC6 WT assay: HiBit protein expression. It counts as cell-based. The note with it: HEK-293 cells transiently expressing HiBit-tagged ABCC6 WT; 24 h treatment; top concentration 20 μM; read-out: ABCC6 WT EC50, Emax. The text has this:
To assess activity against ABCC6, compounds were screened in an assay measuring protein expression, using cells transfected with cDNA encoding HiBit-tagged ABCC6 wild-type.
Described here is an assay for measuring the expression of the wild type of human ABCC6 (henceforth referred to as ABCC6 WT) and the use of this assay to measure the efficacy of compounds to increase the expression of ABCC6 WT. The assay was designed to characterize the efficacy and potency of compounds to increase the expression of ABCC6 WT by calculating an Emax and EC50 value. HEK-293 cells transiently expressing ABCC6 WT (HEK-293/ACC6 WT) were used for this assay and were cultured at 37° C. (5% CO2, humidified) in Dulbecco's Modified Eagle Medium (DMEM, Gibco product #11965-092) supplemented with 10% fetal bovine serum. For the assay, HEK-293 cells were transfected with […]/10 cm plate of cDNA encoding HiBit-tagged ABCC6 wild-type using Lipofectamine 2000 (Thermo Fisher, product #11668019). Twenty-four hours after transfection, the HEK-293/ACC6 WT cells were seeded in white/opaque 384-well plates (PerkinElmer, cat. No. 6007688) at 10,000 cells/well in 20 μl growth medium and allowed to settle for 4 hours at 37° C. (5% CO2, humidified). Compound serial dilutions are prepared in growth medium as ten times (10×) the final concentration and using a dilution factor of 2. After the four-hour incubation period, 2.2 μL of the 10× dilutions are transferred to the assay plate.
Dose response curves include ten doses with the top final concentration at 20 μM in 0.15% DMSO. Liquid handling is performed with an Integra mini96-tip head (INTEGRA). After addition of compound treatment, cells are incubated for 24 hours at 37° C. (5% CO2, humidified). After the 24-hour treatment, plates are allowed to equilibrate for 15 minutes at room temperature. Using Integra mini-96, 20 μl of HiBit lytic assay reagent (Promega, product #N3040), which is prepared according to manufacturer's instructions, is added to each well. The plates are rotated at room temperature for 10 minutes and luminescent signal is acquired using an EnVision Multimode Plate Reader (PerkinElmer).
Results are presented below in Table 4 for ABCC6 WT.
Turning to `CNS(=O)(=O)c1ccc(-c2cncc(C#N)c2)nc1Oc1c(C)cc(C(F)(F)F)nc1C1CC1` [Compound I-293], the EC50 lay within 1 to 10 µM.
As to `Cc1cc(C(F)(F)F)nc(C2CC2)c1Oc1nc(-c2cncc(C#N)c2)ccc1S(=O)(=O)Nc1cccnc1` [Compound I-294], the EC50 is under 1 µM.
Regarding `Cc1cc(C(F)(F)F)nc(C2CC2)c1Oc1nc(-c2cccc(C#N)c2)ccc1S(=N)(=O)C1CC1` (stereo not drawn) [Compound I-295], the EC50 was under 1 µM.
With `Cc1cc(C(F)(F)F)nc(C2CC2)c1Oc1nc(-c2cncc(C#N)c2)ccc1S(=N)(=O)c1cccnn1` (stereo not drawn) [Compound I-296] the figure was 1 to 10 µM.
With `Cc1cc(C(F)(F)F)nc(C2CC2)c1Oc1nc(-c2cncc(C#N)c2)ccc1S(=N)(=O)c1cnccn1` (stereo not drawn) [Compound I-297] the figure was 1 to 10 µM; with `CNS(=O)(=O)c1ccc(-c2cncc(C#N)c2)nc1Oc1c(C)cc(C2CC2)nc1C1CC1` [Compound I-298], 1 to 10 µM; with `Cc1sc(C2CC2)nc1Oc1nc(-c2cncc(C#N)c2)ccc1NS(C)(=O)=O` [Compound I-299], under 1 µM.
With `Cc1nc(Oc2nc(-c3cncc(C#N)c3)ccc2NS(C)(=O)=O)c(C2CC2)s1` [Compound I-300] the figure was under 1 µM; with `Cc1cc(C(F)(F)F)nc(C2CC2)c1Oc1nc(-c2cncc(C#N)c2)ccc1S(=N)(=O)C1CCOCC1` (stereo not drawn) [Compound I-301], 1 to 10 µM; with `Cc1cc(C(F)(F)F)nc(C2CC2)c1Oc1nc(-c2cncc(C#N)c2)ccc1S(=N)(=O)c1ccccn1` (stereo not drawn) [Compound I-302], 10 to 25 µM.
Consider `Cc1nc(C(F)(F)F)nc(C2CC2)c1Oc1nc(-c2cncc(C#N)c2)ccc1S(=N)(=O)C1CC1` (stereo not drawn) [Compound I-303], for which the concentration for a half-maximal effect (EC50) lay within 1 to 10 µM.
As for `Cc1cc(C(F)(F)F)nc(C2CC2)c1Oc1nc(-c2cncc(C#N)c2)ccc1S(=N)(=O)c1cccnc1` (stereo not drawn) [Compound I-304], the EC50 is 1 to 10 µM.
For `Cc1cc(C(F)(F)F)nc(C2CC2)c1Oc1nc(-c2cncc(C#N)c2)ccc1S(=O)(=O)NC1COC1` [Compound I-305], the EC50 was under 1 µM.
The result for `Cc1cc(C(F)(F)F)nc(C2CC2)c1Oc1nc(-c2cncc(C#N)c2)ccc1S(=O)(=O)NC1CCOCC1` [Compound I-306] reads under 1 µM; that for `Cc1cc(C)c(Oc2nc(-c3c[nH]c(=O)c(C#N)c3)ccc2NS(C)(=O)=O)c(C)n1` [Compound I-307], 1 to 10 µM; that for `CNS(=O)(=O)c1ccc(-c2cncc(C#N)c2)nc1Oc1nc(C2CC2)sc1C` [Compound I-308], 1 to 10 µM.
The result for `Cc1nc(C(F)(F)F)nc(C2CC2)c1Oc1nc(-c2cncc(C#N)c2)ccc1S(=O)(=O)Nc1cnn(C)c1` [Compound I-309] reads 1 to 10 µM; that for `Cc1nc(C(F)(F)F)nc(C2CC2)c1Oc1nc(-c2cncc(C#N)c2)ccc1S(=O)(=O)Nc1cccnc1` [Compound I-310], under 1 µM.
The result for `Cc1cc(C)[n+]([O-])c(C)c1Oc1nc(-c2cncc(C#N)c2)ccc1NS(C)(=O)=O` [Compound I-311] reads 1 to 10 µM; that for `CNS(=O)(=O)c1ccc(-c2cncc(C#N)c2)nc1Oc1nc(C)sc1C1CC1` [Compound I-312], under 25 µM.
On to `CNS(=O)(=O)c1ccc(-c2cncc(C#N)c2)nc1Oc1c(C)nc(C(F)F)nc1C1CC1` [Compound I-313], for which the EC50 fell in the range of 1 to 10 µM.
The result for `Cc1nc(C(F)F)nc(C2CC2)c1Oc1nc(-c2cncc(C#N)c2)ccc1S(=O)(=O)NC1CC1` [Compound I-314] reads at least 25 µM.
The result for `CNS(=O)(=O)c1ccc(-c2cncc(C#N)c2)nc1Oc1c(C)nc(C(F)(F)F)nc1C1CC1` [Compound I-315] reads 1 to 10 µM; that for `Cc1cc(C)c(Oc2nc(-c3cccc(C#N)c3)ccc2S(=N)(=O)C2CC2)c(C)n1` (stereo not drawn) [Compound I-316], 1 to 10 µM.
